Measurements reported in patent US8147838B2, “Peptide” (priority 2005, dated 2012).
No end group written: not given here.

Assays:
[1] = molecular target: MHC class I allele A*0101 (A1) (Homo sapiens, UniProt P04439, A114D/A174V/A182V/D101N/D185E/E176A/E190D/L180R/Q94H/R68K/S129P/T187R/V100A/V91M/W191G); assay: iScore multi-parametric analysis, A*0101; format: binding; conditions: for iScore, MHC Class I Molecule A*0101: level of binding: >0.5, 0.25-0.5, <0.25
Description: (§1) Finally, multiparametric analysis is performed on the results from these assays and an iScore is generated. The iScore represents a measure of the overall quality of peptide-MHC binding, enabling candidate peptides to be ranked in order of binding quality and allowing rational prioritisation of peptides for functional cellular follow-up studies.
(§2) As part of the validation of the iTopia system, a panel of overlapping peptides derived from the CMV pp 65 protein were used and their binding properties for the A*0201 allele analysed. A number of T cell epitopes restricted by HLA A*0201 had already been identified (by more conventional methodologies) by other researchers for this protein. In the iTopia study, it was reported that an iScore of: >0.5 represented “good quality binding”; between 0.25 and 0.5 represented “medium quality binding”; and <0.25 represented “poor quality binding”. Six of the 20 peptides which gave a “good” iScore (>0.5) for A*0201, represented previously characterised CMV pp 65 A*0201 epitopes.
(§3) Each MHC class I allele has different binding properties and affinities for peptides which they bind. Therefore, information obtained with HLA A*0201 in which peptides are ranked as good, medium or poor binders using >0.5, 0.25-0.5 and <0.25 as thresholds is not necessarily transferable between alleles. Also, different proteins are likely to have distinct immunogenic profiles and the affinities between peptides and MHC class I molecules will be different between proteins. This may be particularly relevant in the case of self-antigens where immunogenicity is likely to be lower than in foreign proteins.
(§4) Multi-parametric analysis permits the integration of half-life and ED50 parameters in an integrated iScore. This reflects the capability of a peptide to reconstitute with MHC molecules in a stable complex, defining its overall level of binding i.e. the iScore value represents the overall quality of peptide-MHC binding and is used to rank candidate peptides as an indicator of functional relevance. The lead candidate epitopes for each allele are selected for cellular functional analysis to confirm their biological relevance.
(§5) The changes in gradient of the graphs in FIGS. 7 to 10 are indicated by a line which delineates the populations of iScores forming the basis of discrimination for further functional studies.

[2] = molecular target: MHC class I allele A*0201 (A2) (Homo sapiens, UniProt P04439, D140Y/D185E/D98H/E176V/E277Q/G131W/G231S/I119V/I121R/I166T/I218V/L300P/L318F/N151K/N90K/P208A/P217A/Q86G/Q94H/R138H/R169H/T345S); assay: iScore multi-parametric analysis, A*0201; format: binding; conditions: level of binding: >0.5, 0.25-0.5, <0.25
Description: as §1, §2, §3, §4, §5

[3] = molecular target: MHC class I allele A*0301 (A3) (Homo sapiens, UniProt P04439); assay: iScore multi-parametric analysis, A*0301; format: binding; conditions: for iScore, MHC Class I Molecule A*0301: level of binding: >0.5, 0.25-0.5, <0.25; for iScore (iTopia), A*0301: integrates half-life and ED50
Description: as §1, §2, §3, §4, §5

[4] = molecular target: MHC class I allele B*0702 (B7) (Homo sapiens, UniProt P01889); assay: iScore multi-parametric analysis, B*0702; conditions: level of binding: >0.5, 0.25-0.5, <0.25
Description: as §1
As part of the validation of the iTopia system, a panel of overlapping peptides derived from the CMV pp 65 protein were used and their binding properties for the A*0201 allele analysed. A number of T cell epitopes restricted by HLA A*0201 had already been identified (by more conventional methodologies) by other researchers for this protein. In the iTopia study, it was reported that an iScore of: >0.5 represented “good quality binding”; between 0.25 and 0.5 represented “medium quality binding”; and <0.25 represented “poor quality binding”.
as §4

Row | Compound | iScore, MHC Class I Molecule A*0101 [1] | iScore, MHC Class I Molecule A*0201 [2] | iScore, MHC Class I Molecule A*0301 [3] | iScore, MHC Class I Molecule B*0702 [4] | iScore (iTopia), A*0101 ([1]; integrates half-life and ED50) | iScore (iTopia), A*0301 [3]
1 | CC[C@H](C)[C@H](NC(=O)[C@H](C)NC(=O)CNC(=O)[C@@H](NC(=O)[C@@H](N)CC(C)C)[C@@H](C)CC)C(=O)N[C@@H](Cc1ccccc1)C(=O)N[C@@H](CC(C)C)C(=O)N[C@@H](CC(C)C)C(=O)N[C@H](C(=O)O)C(C)C [Peptide 183] | 0 | 1.897 | 0.07 | 0 |  | 
2 | VLPAGAFAR [Peptide 53] | 0 | 0.081 | 0.027 | 0 |  | 
3 | LASNHFLYL [Peptide 109] | 0.12 | 0.337 | 0.224 | 0 | 0.12 | 0.224
4 | LQGLRRLEL [Peptide 105] | 0 | 0.114 | 0 | 0.119 |  | 
5 | LSPFAFSGS [Peptide 79] | 0 | 0.064 | 0 | 0 |  | 
6 | KVLHNGTLA [Peptide 136] | 0 | 0.15 | 0 | 0 |  | 
7 | YVSFRNLTH [Peptide 126] | 0 | 0 | 0.086 | 0.21 |  | 
8 | ADPRLTNLS [Peptide 204] | 0 | 0 | 0 | 0.094 |  | 
9 | APSPLVELI [Peptide 86] | 0 | 0 | 0 | 0.101 |  | 
10 | RLDEVRAGA [Peptide 65] | 0 | 0.422 | 0.057 | 0.032 |  | 
11 | SNASVSAPS [Peptide 83] | 0 | 0.154 | 0 | 0 |  | 
12 | YPEKMRNRV [Peptide 163] | 0 | 0 | 0 | 0.242 |  | 
13 | VLYLNRKGI [Peptide 187] | 0 | 0.095 | 0.014 | 0.164 |  | 
14 | GAFARRPPL [Peptide 55] | 0 | 0.222 | 0 | 0.359 |  | 
15 | RALQGLRRL [Peptide 104] | 0 | 0.168 | 0.027 | 0.078 |  | 
16 | C[C@H](NC(=O)[C@H](C)NC(=O)[C@@H]1CCCN1C(=O)CNC(=O)[C@H](CCCNC(=N)N)NC(=O)[C@H](CO)NC(=O)[C@H](CS)NC(=O)CNC(=O)CN)C(=O)O [Peptide 2] | 0 | 0.016 | 0 | 0.012 |  | 
17 | ELILNHIVP [Peptide 89] | 0 | 0.067 | 0 | 0 |  | 
18 | CC(C)C[C@H](NC(=O)[C@H](Cc1ccc(O)cc1)NC(=O)[C@H](CC(C)C)NC(=O)[C@@H](NC(=O)[C@H](CC(C)C)NC(=O)[C@@H](N)CC(C)C)C(C)C)C(=O)N[C@@H](CC(N)=O)C(=O)N[C@@H](CCCNC(=N)N)C(=O)N[C@@H](CCCCN)C(=O)O [Peptide 186] | 0 | 0.386 | 0.372 |  |  | 0.375
